Reference: paper PMC4409069 (PLoS ONE, 2015)
Read-outs that look alike come from different tables or passages of the source. Ends that are not written are not given here.

What was measured:
[1] = system: A/Philippines/2/82/H3N2 (Phil82); format: cell-based, influenza A virus; settings: for IC50: read-out: approximate 50% viral neutralizing concentration
[2] = system: A/California/04/09/H1N1 pandemic strain (Cal09); format: cell-based, influenza A virus
[3] = system: A/New York/312/01/H1N1 (NY01) seasonal strain; format: cell-based, influenza A virus
[4] = system: Mex 1:7 (HA gene of A/Mexico/4108/09/H1N1 with the other 7 genes of NY01); format: cell-based, influenza A virus
[5] = system: Mex 2:6 (HA and NA of A/Mexico/09/H1N1, other genes of NY01); format: cell-based, influenza A virus
MDCK cells = assay: LDH assay of cell viability, MDCK cells; format: cell-based, canine; settings: peptide 12.8 μM, 24 hrs, mean±SEM of 3 or 4 experiments
Procedure: The LDH assay was performed using LDH cytoxicity detection kit (Clontech, CA, USA) according to the manufacturer’s instructions. In brief, MDCK cells were incubated with Phil82 IAV (with or without LL-37 and related peptides). Cells were also incubated with peptides alone. The incubation time (24 hrs) and assay conditions were exactly same as in fluorescent focus assays. The LDH activity was measured after the 24 hrs incubation of cells with IAV and/or peptides. Controls included uninfected/untreated cells as negative control (NC) and cells treated with lysis solution as positive control (PC). The percent cytotoxicity is obtained from OD values using the formula: [(Sample OD—NC OD) ÷ (PC OD—NC OD)] ×100

HBTE cells = assay: LDH assay of cell viability, HBTE cells; format: cell-based, human; settings: 24 hrs, mean±SEM of 3 or 4 experiments
[6] = system: hemagglutination activity of Phil82 IAV; assay: Hemagglutination (HA) inhibition assay; format: biochemical, influenza A virus; settings: concentrations up to 12μM, three experiments, human type O red cells
Procedure: HA inhibition was measured by serially diluting LL-37 peptides in round bottom 96 well plates (Serocluster U-Vinyl plates; Costar, Cambridge, MA) using PBS as a diluent and human type O red cells as described. 40 HA units of virus was used in the assay.

[7] = system: neuraminidase (NA) activity of Phil82; format: biochemical, influenza A virus
NA activity of Cal09 = format: biochemical, influenza A virus
NY01 = format: cell-based, influenza A virus
Cal09 = format: cell-based, influenza A virus
[8] = system: A/California/04/09/H1N1 pandemic strain (Cal09); format: cell-based, influenza A virus; remark: listed apart in the source
[9] = system: A/California/04/09/H1N1 pandemic strain (Cal09); format: cell-based, influenza A virus; remark: listed apart in the source
A/PR/8/34/H1N1 (PR-8) = format: cell-based, influenza A virus
[10] = HBTE no IAV, peptide 12.8 μM, LL-23V9 n = 1, * significantly reduced vs control
[11] = HBTE+IAV (Phil82), peptide 12.8 μM, LL-23V9 n = 1, * significantly reduced vs control
[12] = read-out: approximate 50% viral neutralizing concentration

Compound	antiviral (neutralizing) activity, in words [1]	effect on replication, in words [2]	% Viability of MDCK or HBTE Cells (MDCK cells; MDCK no IAV) [%]	% Viability of MDCK or HBTE Cells (MDCK cells; MDCK+IAV (Phil82)) [%]	% Viability of MDCK or HBTE Cells (HBTE cells; [10])	% Viability of MDCK or HBTE Cells (HBTE cells; [11])	inhibition of hemagglutination activity [6]	effect on infectivity, in words [8]	effect on infectivity, in words [9]	also measured
CC[C@H](C)[C@H](NC(=O)[C@H](CCCCN)NC(=O)[C@H](CCC(=O)O)NC(=O)[C@H](CCCCN)NC(=O)[C@H](CO)NC(=O)[C@H](CCCCN)NC(=O)[C@H](CCCNC(=N)N)NC(=O)[C@H](Cc1ccccc1)NC(=O)[C@H](Cc1ccccc1)NC(=O)[C@H](CC(=O)O)NC(=O)CNC(=O)[C@H](CC(C)C)NC(=O)[C@@H](N)CC(C)C)C(=O)NCC(=O)N[C@@H](CCCCN)C(=O)N[C@@H](CCC(=O)O)C(=O)N[C@@H](Cc1ccccc1)C(=O)N[C@@H](CCCCN)C(=O)N[C@@H](CCCNC(=N)N)C(=O)N[C@H](C(=O)N[C@H](C(=O)N[C@@H](CCC(N)=O)C(=O)N[C@@H](CCCNC(=N)N)C(=O)N[C@H](C(=O)N[C@@H](CCCCN)C(=O)N[C@@H](CC(=O)O)C(=O)N[C@@H](Cc1ccccc1)C(=O)N[C@@H](CC(C)C)C(=O)N[C@@H](CCCNC(=N)N)C(=O)N[C@@H](CC(N)=O)C(=O)N[C@@H](CC(C)C)C(=O)N[C@H](C(=O)N1CCC[C@H]1C(=O)N[C@@H](CCCNC(=N)N)C(=O)N[C@H](C(=O)N[C@@H](CCC(=O)O)C(=O)N[C@@H](CO)C(=O)O)[C@@H](C)O)C(C)C)[C@@H](C)CC)C(C)C)[C@@H](C)CC [LL-37, reference compound]	clear dose-related antiviral activity	only slight inhibition at intermediate doses of LL-37 and actual enhancement of the replication of this strain at higher doses	92±11	99±12	57±6* %	55±6* %	No inhibition was observed			IC50 [1]: ~2 µg/mL; effect on replication, in words [3]: clear dose related inhibition; effect on replication, in words [4]: inhibited at all concentrations tested; effect on replication, in words [5]: inhibited by LL-37 at the lower concentration of 2.2μM but higher concentrations of LL-37 were not inhibitory; % Viability of MDCK or HBTE Cells (HBTE cells; HBTE no IAV, peptide 6.4 μM): 95±2%; % Viability of MDCK or HBTE Cells (HBTE cells; HBTE+IAV (Phil82), peptide 3.2 μM): 105±4%; % Viability of MDCK or HBTE Cells (HBTE cells; HBTE+IAV (Phil82), peptide 6.4 μM): 91±4%; inhibition of NA activity, in words [7]: neither LL-37 nor the related peptides inhibited NA activity; inhibition of NA activity, in words (NA activity of Cal09): did not inhibit NA activity; concentrations that significantly decreased viral RNA in supernatants and cells (NY01): ≥ 0.4 µM; viral RNA at 24 hrs after infection, in words (NY01): significant reduction in RNA of NY01 in both cells and supernatant; viral uptake by MDCK cells (viral M protein RNA), in words (NY01): significant reduction of uptake; viral RNA at 24 hrs after infection, in words (Cal09): trend to increase of Cal09 in the cells in presence of LL-37 but this was again highly variable and not statistically significant; viral uptake by MDCK cells (viral M protein RNA in cell lysate), in words (Cal09): no significant difference in viral uptake
CCOC(=O)C1=C[C@@H](OC(CC)CC)[C@H](NC(C)=O)[C@@H](N)C1 [Oseltamivir]										inhibition of NA activity, in words [7]: marked reduction of NA activity
CRAMP [reference compound]		did not significantly inhibit								effect on replication, in words [3]: inhibited (albeit modestly); effect on replication, in words [4]: inhibited (albeit modestly); effect on replication, in words [5]: did not significantly inhibit
GIKEFKRIVQRIKDFLRNLV-NH2 [GI-20]	approached or equaled that of full length LL-37	significant inhibition	103±7	107±3	103±3%	104±3%	No inhibition was observed	significant inhibition	significant inhibition	
HNP-1: the human defensin HNP-1 (human neutrophil peptide), purchased from Bachem [reference compound]		did inhibit Cal09								
LLGDFFRKSKEKIGKEFKRIVQR [LL-23]	slight antiviral activity	modest but statistically significant inhibition	105±4	101±11	98±1%	98±3%	No inhibition was observed	without activity	without activity	approximate 50% viral neutralizing concentration [1]: >32μg/ml (>11.3 μM); IC50 [1]: > 11.3 µM; approximate 50% viral neutralizing concentration (A/PR/8/34/H1N1 (PR-8)): >32μg/ml (>11.3 μM); IC50 (A/PR/8/34/H1N1 (PR-8); [12]): > 11.3 µM; approximate 50% viral neutralizing concentration [3]: >32μg/ml (>11.3 μM); IC50 [3, 12]: > 11.3 µM
LLGDFFRKVKEKIGKEFKRIVQR [LL-23V9]	significantly increased activity compared to LL-23	modest but statistically significant inhibition	112±6	108±7	103%	99%	No inhibition was observed	without activity	without activity	
